Measured values: US5530097A, “Human cancer inhibitory peptide amides” (Arizona Board of Regents acting on behalf of Arizona State …, priority 1994, dated 1996)

What was measured:
Assay type in all cases: cell-based
A498 = assay: NCI in vitro mini panel, human cancer cell line growth inhibition; details: Renal A498, 48 hrs
Method: (§1) ED50 (P388) and GI50 (HTCL) identify the drug dose which reduces the percent tumor/cell growth to 50%. There is no mathematical difference between ED50 and GI50, both of which are calculated using the same formula. The only difference is historical usage.
(§2) TGI, means "Total Growth Inhibition", and identifies the drug dose needed to yield zero percent growth, i.e. there are just as many cells at the end of the experiment as were present at the beginning. Whether just as many cells were killed as were produced (steady state), or no growth occurred (total inhibition) cannot be distinguished.
(§3) LC50, means "Lethal Concentration 50%", and identifies the drug concentration which reduces to one-half of the cells originally present at the beginning of the experiment.
(§4) Each drug is tested at five (5) doses: 100--10-1-0.1--0.01 μg/mL. Percent Growths are calculated for each dose. The two (or three) doses with growth values above, below, (or near to) 50% growth are used to calculate the ED50 /GI50 values using a linear regression computation. If no dose yields a growth value under 50%, the results are expressed as: ED50 >(highest dose). If no dose yields growth higher than 50% growth, then ED50 <(lowest dose). Similar calculations are performed for the TGI at 0% growth, and at -50% growth for the LC50.
(§5) At the start of each experiment, cells from the in vitro cell cultures are inoculated into the appropriate tubes or microtiter plates. One set of control tubes/plates is immediately counted to determine the number of cells at the start of the experiment. This is the "baseline count", or "Tzero reading". At the end of the experiment (48 hrs later), a second set of control tubes/plates is analyzed to determine the "Control Growth" value. The growth (or death) of cells relative to the initial quantity of cells is used to define the "Percent of Growth."
(§6) Similarly, the compounds disclosed herein have also been tested against an NCI in vitro mini panel. For each of six cell lines GI50, TGI, and LC50 amounts were calculated for each compound. Each compound was also tested against the PS-388 cell line and for this test an ED50 was calculated.
(§7) The protocols followed, for the NCI minipanel are, except for the number of cell lines, those established by M. R. Boyd Ph.D., and well known to those of ordinary skill in the art. The procedure followed for the test against PS-388 Leukemia is the same that was followed in the superseded NCI P-388 screening test, which is also well known to those having ordinary skill in the art.

KM20L2 = assay: as above; details: Colon KM20L2, 48 hrs
Method: as §1, §2, §3, §4, §5, §6, §7

NCI-H460 = assay: as above; details: Lung-NSC NCI-H460, 48 hrs
Method: as §1, §2, §3, §4, §5, §6, §7

OVCAR-3 = assay: as above; details: Ovarian OVCAR-3, 48 hrs
Method: as §1, §2, §3, §4, §5, §6, §7

SF-295 = assay: as above; details: CNS SF-295, 48 hrs
Method: as §1, §2, §3, §4, §5, §6, §7

SK-MEL-5 = assay: as above; details: Melanoma SK-MEL-5, 48 hrs
Method: as §1, §2, §3, §4, §5, §6, §7

PS-388 = PS-388 mouse leukemia cell line test; details: Mouse Leukemia PS-388
Method: as §1, §4, §5, §6, §7

## L-Dolavalyl-L-Leucyl-N-methyl-(3R,4S,5S)-Dolaisoleuinyl-(2R,3R,4S)-Dolaproinyl-L-Methionine N-2-chlorophenylamide [8a]
A498
  GI-50: 0.0037 µg/mL
  LC-50: > 0.01 µg/mL
  TGI: > 0.01 µg/mL
KM20L2
  GI-50: 0.0018 µg/mL
  LC-50: > 0.01 µg/mL
  TGI: > 0.01 µg/mL
NCI-H460
  GI-50: 0.0028 µg/mL
  LC-50: > 0.01 µg/mL
  TGI: 0.0079 µg/mL
OVCAR-3
  GI-50: 0.00047 µg/mL
  LC-50: > 0.01 µg/mL
  TGI: 0.005 µg/mL
SF-295
  GI-50: 0.0034 µg/mL
  LC-50: > 0.01 µg/mL
  TGI: > 0.01 µg/mL
SK-MEL-5
  GI-50: 0.042 µg/mL
  LC-50: > 0.01 µg/mL
  TGI: > 0.01 µg/mL
PS-388
  ED-50: 0.00256 µg/mL

## L-Dolavalyl-L-Leucyl-N-methyl-(3R,4S,5S)-Dolaisoleuinyl-(2R,3R,4S)-Dolaproinyl-N-2(2-chlorophenyl) ethylamide [10b]
A498
  GI-50: 0.00069 µg/mL
  LC-50: > 0.01 µg/mL
  TGI: > 0.01 µg/mL
KM20L2
  GI-50: 0.00031 µg/mL
  LC-50: > 0.01 µg/mL
  TGI: 0.0013 µg/mL
NCI-H460
  GI-50: 0.00033 µg/mL
  LC-50: > 0.01 µg/mL
  TGI: 0.0014 µg/mL
OVCAR-3
  GI-50: 0.00031 µg/mL
  LC-50: > 0.01 µg/mL
  TGI: 0.0012 µg/mL
SF-295
  GI-50: 0.00042 µg/mL
  LC-50: > 0.01 µg/mL
  TGI: > 0.01 µg/mL
SK-MEL-5
  GI-50: 0.00043 µg/mL
  LC-50: > 0.01 µg/mL
  TGI: > 0.01 µg/mL
PS-388
  ED-50: 0.000357 µg/mL

## L-Dolavalyl-L-Leucyl-N-methyl-(3R,4S,5S)-Dolaisoleuinyl-(2R,3R,4S)-Dolaproinyl-L-Phenylalanine N-3-chlorophenylamide [8c]
A498
  GI-50: 0.00042 µg/mL
  LC-50: > 0.01 µg/mL
  TGI: > 0.01 µg/mL
KM20L2
  GI-50: 0.00021 µg/mL
  LC-50: > 0.01 µg/mL
  TGI: 0.0012 µg/mL
NCI-H460
  GI-50: 0.0017 µg/mL
  LC-50: > 0.01 µg/mL
  TGI: 0.0054 µg/mL
OVCAR-3
  GI-50: 0.000064 µg/mL
  LC-50: > 0.01 µg/mL
  TGI: 0.0011 µg/mL
SF-295
  GI-50: 0.00088 µg/mL
  LC-50: > 0.01 µg/mL
  TGI: > 0.01 µg/mL
SK-MEL-5
  GI-50: 0.000042 µg/mL
  LC-50: > 0.01 µg/mL
  TGI: 0.00074 µg/mL
PS-388
  ED-50: 0.0000371 µg/mL

## L-Dolavalyl-L-Leucyl-N-methyl-(3R,4S,5S)-Dolaisoleuinyl-(2R,3R,4S)-Dolaproinyl-L-Methionine N-2-benzothiazolamide [8e]
A498
  GI-50: 0.00087 µg/mL
  LC-50: > 0.01 µg/mL
  TGI: > 0.01 µg/mL
KM20L2
  GI-50: 0.00034 µg/mL
  LC-50: > 0.01 µg/mL
  TGI: > 0.01 µg/mL
NCI-H460
  GI-50: 0.0032 µg/mL
  LC-50: > 0.01 µg/mL
  TGI: > 0.01 µg/mL
OVCAR-3
  GI-50: 0.00008 µg/mL
  LC-50: > 0.01 µg/mL
  TGI: 0.0029 µg/mL
SF-295
  GI-50: 0.0036 µg/mL
  LC-50: > 0.01 µg/mL
  TGI: > 0.01 µg/mL
SK-MEL-5
  GI-50: 0.000051 µg/mL
  LC-50: > 0.01 µg/mL
  TGI: > 0.01 µg/mL
PS-388
  ED-50: 0.000839 µg/mL

## L-Dolavalyl-L-Leucyl-N-methyl-(3R,4S,5S)-Dolaisoleuinyl-(2R,3R,4S)-Dolaproinyl-L-Proline N-2-benzothiazolamide [8f]
A498
  GI-50: > 0.01 µg/mL
  LC-50: > 0.01 µg/mL
  TGI: > 0.01 µg/mL
KM20L2
  GI-50: 0.0074 µg/mL
  LC-50: > 0.01 µg/mL
  TGI: > 0.01 µg/mL
NCI-H460
  GI-50: > 0.01 µg/mL
  LC-50: > 0.01 µg/mL
  TGI: > 0.01 µg/mL
OVCAR-3
  GI-50: 0.0033 µg/mL
  LC-50: > 0.01 µg/mL
  TGI: > 0.01 µg/mL
SF-295
  GI-50: > 0.01 µg/mL
  LC-50: > 0.01 µg/mL
  TGI: > 0.01 µg/mL
SK-MEL-5
  GI-50: 0.0043 µg/mL
  LC-50: > 0.01 µg/mL
  TGI: > 0.01 µg/mL
PS-388
  ED-50: 0.00405 µg/mL

## L-Dolavalyl-L-Leucyl-N-methyl-(3R,4S,5S)-Dolaisoleuinyl-(2R,3R,4S)-Dolaproinyl-L-Methionine N-4-chlorophenylamide [8b]
A498
  GI-50: 0.00045 µg/mL
  LC-50: > 0.01 µg/mL
  TGI: > 0.01 µg/mL
KM20L2
  GI-50: 0.00028 µg/mL
  LC-50: > 0.01 µg/mL
  TGI: > 0.01 µg/mL
NCI-H460
  GI-50: 0.003 µg/mL
  LC-50: > 0.01 µg/mL
  TGI: 0.009 µg/mL
OVCAR-3
  GI-50: 0.000031 µg/mL
  LC-50: > 0.01 µg/mL
  TGI: 0.0016 µg/mL
SF-295
  GI-50: 0.0029 µg/mL
  LC-50: > 0.01 µg/mL
  TGI: > 0.01 µg/mL
SK-MEL-5
  GI-50: 0.000018 µg/mL
  LC-50: > 0.01 µg/mL
  TGI: > 0.01 µg/mL
PS-388
  ED-50: 0.000434 µg/mL

## L-Dolavalyl-L-Leucyl-N-methyl-(3R,4S,5S)-Dolaisoleuinyl-(2R,3R,4S)-Dolaproinyl-Dolaphenine [10a]
A498
  GI-50: 0.00026 µg/mL
  LC-50: > 0.01 µg/mL
  TGI: 0.0063 µg/mL
KM20L2
  GI-50: 0.000034 µg/mL
  LC-50: > 0.01 µg/mL
  TGI: 0.001 µg/mL
NCI-H460
  GI-50: 0.00022 µg/mL
  LC-50: > 0.01 µg/mL
  TGI: 0.0007 µg/mL
OVCAR-3
  GI-50: 0.000031 µg/mL
  LC-50: > 0.01 µg/mL
  TGI: 0.00051 µg/mL
SF-295
  GI-50: 0.00027 µg/mL
  LC-50: > 0.01 µg/mL
  TGI: > 0.01 µg/mL
SK-MEL-5
  GI-50: 0.000058 µg/mL
  LC-50: > 0.01 µg/mL
  TGI: > 0.01 µg/mL
PS-388
  ED-50: 0.0000312 µg/mL

## L-Dolavalyl-L-Leucyl-N-methyl-(3R,4S,5S)-Dolaisoleuinyl-(2R,3R,4S)-Dolaproinyl-L-Phenylalanine N-4-chlorophenylamide [8d]
A498
  GI-50: 0.00018 µg/mL
  LC-50: > 0.01 µg/mL
  TGI: 0.0038 µg/mL
KM20L2
  GI-50: 0.000015 µg/mL
  LC-50: > 0.01 µg/mL
  TGI: 0.0012 µg/mL
NCI-H460
  GI-50: 0.00032 µg/mL
  LC-50: > 0.01 µg/mL
  TGI: 0.0011 µg/mL
OVCAR-3
  GI-50: 0.0000085 µg/mL
  LC-50: > 0.01 µg/mL
  TGI: 0.00023 µg/mL
SF-295
  GI-50: 0.00034 µg/mL
  LC-50: > 0.01 µg/mL
  TGI: > 0.01 µg/mL
SK-MEL-5
  GI-50: 0.0000051 µg/mL
  LC-50: > 0.01 µg/mL
  TGI: > 0.01 µg/mL
PS-388
  ED-50: 0.0000025 µg/mL

## L-Dolavalyl-L-Leucyl-N-methyl-(3R,4S,5S)-Dolaisoleuinyl-(2R,3R,4S)-Dolaproinyl-N-2(3-chlorophenyl) ethylamide [10c]
A498
  GI-50: 0.0038 µg/mL
  LC-50: > 0.01 µg/mL
  TGI: > 0.01 µg/mL
KM20L2
  GI-50: 0.0020 µg/mL
  LC-50: > 0.01 µg/mL
  TGI: > 0.01 µg/mL
NCI-H460
  GI-50: 0.0029 µg/mL
  LC-50: > 0.01 µg/mL
  TGI: 0.0084 µg/mL
OVCAR-3
  GI-50: 0.0019 µg/mL
  LC-50: > 0.01 µg/mL
  TGI: > 0.01 µg/mL
SF-295
  GI-50: 0.0035 µg/mL
  LC-50: > 0.01 µg/mL
  TGI: > 0.01 µg/mL
SK-MEL-5
  GI-50: 0.0025 µg/mL
  LC-50: > 0.01 µg/mL
  TGI: > 0.01 µg/mL
PS-388
  ED-50: 0.00314 µg/mL
